This passage reports IC50 and inhibition results from ChEMBL document CHEMBL3400090, “Benzofused hydroxamic acids: useful fragments for the preparation of histone deacetylase inhibitors. Part 2: 7-fluorobenzothiophenes and benzofurans” (Bioorg Med Chem Lett, 2015).

The nature of experiment [1]: Antiproliferative activity against human HCT116 cells after 5 days by Alamar Blue assay. The conditions noted are these: HCT-116, 120 h. The experiment is classed as functional, cell-based.
The target in experiment [2] is T1, Histone deacetylase (Rattus norvegicus) (UniProt Q6P6W3+Q99P99+Q99P96+Q4QQW4+Q99P97+Q5RJZ2+B1WBY8). The conditions noted are these: at 0.01 µM.
Description: Inhibition of isolated rat liver HDAC using substrate containing acetylated lysine side chain assessed as release of fluorophore at 0.01 uM by Fluor de Lys assay
The target of experiment [3] is T1, Histone deacetylase (Rattus norvegicus). The conditions noted are these: at 0.1 µM.
Description: Inhibition of isolated rat liver HDAC using substrate containing acetylated lysine side chain assessed as release of fluorophore at 0.1 uM by Fluor de Lys assay

With `Cc1ncoc1C(=O)NCc1ccc2cc(C(=O)NO)sc2c1F`, the IC50 (usually the concentration needed to halve the response being measured) in experiment [1] is 210 nM. Further, the values for the inhibition in experiment [2] and in experiment [3] were 20% and 61%, respectively.

Take `COc1ccc(CC(=O)Nc2ccc3oc(C(=O)NO)cc3c2)cc1`: the IC50 in experiment [1] turned out to be 2700 nM. In addition, the inhibition (in general, the drop in the measured response relative to a control, in per cent) is less than 20% in experiment [2] and 42% in experiment [3].

In experiment [1], `O=C(NCc1ccc2oc(C(=O)NO)cc2c1)c1ccco1` showed an IC50 of 860 nM. For the same compound, the results for the inhibition in experiment [2] and in experiment [3] were less than 20% and 45%, respectively.

`O=C(NCc1ccc2oc(C(=O)NO)cc2c1)c1ccccc1` registered an IC50 in experiment [1] of 690 nM. For the same compound, the inhibition in experiment [2] was less than 20%; in experiment [3], 49%.

Turning to `COc1cccc(CC(=O)Nc2ccc3oc(C(=O)NO)cc3c2)c1`, the results for the inhibition in experiment [2] and in experiment [3] were less than 20% and 32%, respectively.

With `O=C(NCc1ccc2cc(C(=O)NO)sc2c1F)c1ccco1`, 90 nM corresponded to half-maximal inhibition in experiment [1] (IC50). The inhibition in experiment [2] is 39%; in experiment [3] it was 78%.

In experiment [1], `O=C(NO)c1cc2ccc(CN3CCc4ccccc4C3)c(F)c2s1` had an IC50 of 3000 nM. The inhibition was less than 20% in experiment [2] and 45% in experiment [3].

For the compound `Cc1cc(C(=O)NCc2ccc3cc(C(=O)NO)sc3c2F)oc1C`, inhibition in experiment [1] was half-maximal at 470 nM (IC50). Besides, the inhibition in experiment [2] is 21%; in experiment [3] it was 59%.

`O=C(NCc1ccc2cc(C(=O)NO)sc2c1F)c1ccc[nH]1` came in with an IC50 in experiment [1] of 300 nM. Also, the figures for the inhibition in experiment [2] and in experiment [3] were 45% and 76%, respectively.

As for `O=C(NO)c1cc2ccc(CN(CCO)Cc3ccccc3)c(F)c2s1`, the IC50 in experiment [1] was 800 nM. The inhibition in experiment [2] is less than 20%; in experiment [3], 48%.

The compound `COc1ccc(C(=O)NCc2ccc3cc(C(=O)NO)sc3c2F)cc1` registered an IC50 in experiment [1] of 50 nM. Moreover, the inhibition in experiment [2] stood at 39%; in experiment [3], 78%.

`Cc1ccc(C(=O)NCc2ccc3cc(C(=O)NO)sc3c2F)s1` returned an IC50 in experiment [1] of 120 nM. Besides, the inhibition in experiment [2] was 41%; in experiment [3], 80%.

For the compound `CN(C)c1ccc(C(=O)NCc2ccc3cc(C(=O)NO)sc3c2F)cc1`, in experiment [1], the half-inhibitory concentration (IC50) came out at 60 nM. For the same compound, the inhibition in experiment [2] is less than 20%; in experiment [3] it was 61%.

With `O=C(Cc1ccccc1)Nc1ccc2oc(C(=O)NO)cc2c1`, in experiment [1], 1700 nM corresponded to half-maximal inhibition (IC50). Moreover, the values for the inhibition in experiment [2] and in experiment [3] were less than 20% and 41%, respectively.

Consider `O=C(NCc1ccc2cc(C(=O)NO)oc2c1)c1ccco1`, for which the inhibition in experiment [2] was less than 20%; in experiment [3], 27%.

In turn, `COCc1ccc(C(=O)NCc2ccc3cc(C(=O)NO)sc3c2F)o1` gave an IC50 in experiment [1] of 310 nM. Moreover, the results for the inhibition in experiment [2] and in experiment [3] were 23% and 67%, respectively.

In experiment [1], `COc1ccccc1C(=O)NCc1ccc2cc(C(=O)NO)sc2c1F` yielded an IC50 of 1200 nM. Also, the inhibition in experiment [2] was less than 20%; in experiment [3], 56%.

`CN(C)c1ccc(CC(=O)Nc2ccc3oc(C(=O)NO)cc3c2)cc1`: the inhibition is less than 20% in experiment [2] and 34% in experiment [3].

On to `O=C(NCc1ccc2cc(C(=O)NO)sc2c1F)c1ccccc1`, for which inhibition in experiment [1] was half-maximal at 980 nM (IC50). In addition, the figures for the inhibition in experiment [2] and in experiment [3] were 24% and 64%, respectively.

With `CN(C)CCCC(=O)Nc1ccc2oc(C(=O)NO)cc2c1`, the values for the inhibition in experiment [2] and in experiment [3] were less than 20% and 26%, respectively.
